From patent US20130280764A1, “METHOD OF IMPROVING THE ACTIVITY OF CELLULASE ENZYME MIXTURES IN THE SACCHARIFICATION (LIGNO)CELLULOSIC MATERIAL” (DYADIC INTERNATIONAL (USA) LTD., priority 2012, published 2013) come the findings set out here.

Common to all, as to format: biochemical, Myceliophthora thermophila C1
The test system of experiment [1] is CBH2. Put plainly: Saccharification of microcrystalline cellulose by purified cellulase with gluconolactone. The following applies: 10 g/L gluconolactone; MCC, 50° C., 72 hrs. Here is the method: (§1) Purified Bgl1, Eg5, Eg6, CBH1, CBH2, and CBH4 from M. thermophila C1 were used to determine the level of inhibition by gluconolactone. For Bgl1, cellobiase activity was assayed by the following procedure: 0.4 ml of 2.5 mM cellobiose solution (in 0.1 M Na-acetate with pH 4.5, 5.0 or 6.0) was incubated during 5 min at 50° C. (with or without gluconolactone), then 0.1 ml of the enzyme (bgl1 from C1) solution was added (the dilution of the enzyme chosen at such a concentration in order to achieve 10% of cellobiose hydrolysis in 15 min, which is 0.072 g/L of glucose released). After 5, 10 and 15 min of incubation at […], 0.1 ml of the reaction mixture was sampled and glucose concentration was determined immediately by the glucose oxidase-peroxidase assay (Megazymes). Gluconolactone (Sigma-Aldrich) was added in the reaction mixture at concentrations between 0-10 g/L (0, 0.04, 0.08, 0.1, 0.2, 0.3, 0.6, 0.8, 1, 2, 4, 5, 8 and 10 g/L).
(§2) For C1 cellulases Eg2, Eg5, Eg6, CBH1, CBH2, CBH4, the effect of 10 g/L gluconolactone on the saccharification of microcrystalline cellulose (“MCC”) at 50° C. was determined after 72 hrs.

For experiment [2], the system named is EG2. Described as above. The note with it: 10 g/L gluconolactone; MCC, 50° C., 72 hrs. Here is the method:
as §1, §2

Experiment [3] concerns EG5. The experiment is described as above. The note with it: 10 g/L gluconolactone; MCC, 50° C., 72 hrs. How it is done:
as §1, §2

Experiment [4] relates to CBH4. The experiment is described as above. The following applies: 10 g/L gluconolactone; MCC, 50° C., 72 hrs. How it is done: as §1, §2
Experiment [5] deals with CBH1. Described as above. The note with it: 10 g/L gluconolactone; MCC, 50° C., 72 hrs. How it is done: as §1, §2
In experiment [6] the test system is M. thermophila C1 BGl1. Put plainly: Cellobiase activity of Bgl1 with or without gluconolactone. The following applies: gluconolactone above 0.1 g/L; pH 4.5, 5.0 and 6.0. How it is done:
as §1, §2

The structures appear in SMILES notation.

Consider `O=C1O[C@H](CO)[C@@H](O)[C@H](O)[C@H]1O` [gluconolactone], for which the Remaining activity came out at 13% in experiment [1]; 28% in experiment [2]; 65% in experiment [3]; 33% in experiment [4]; 14% in experiment [5]. The “inhibition of cellobiase activity” value in experiment [6] was “completely inhibited”.
